Assay results taken from patent US20100331297A1, “MODULATION OF PROTEIN TRAFFICKING” (FOLDRX PHARMACEUTICALS, INC., priority 2007, published 2010).

system: ypt1^ts cells; experiment: Rescue of growth of ypt1^ts mutant yeast (OD600); format: cell-based; conditions: Saccharomyces cerevisiae, read-out: Ypt1-ts MRC (Minimum Rescue Concentration), ypt1^ts cells, 35° C. and 37° C., OD600; multiple results separated by a comma
Source text: The activity of the compounds as modulators of protein trafficking may be measured in the assays described herein that evaluate the ability of a compound to rescue an impairment in protein trafficking. For example, the yeast mutant cell line ypt1^ts can be used to identify compounds that rescue cells from the lethal phenotype of a mutant YPT1 allele (see, e.g., Examples and Schmitt et al. (1988) Cell 53:635-47). The activity may be measured, for example, in a whole yeast cell assay using 384-well screening protocol and an optical density measurement.
The yeast mutant cell line ypt1^ts suppresses, in a temperature dependent fashion, the dominant-lethal phenotype of a mutant YPT1 allele (Schmitt et al. (1988) Cell 53:635-47). The yeast mutant cell line ypt1^ts contains an allele of YPT1 that has two point mutations: one that changes an asparagine at position 121 to a isoleucine (N121I) and another that changes an alanine at position 161 to a valine (A161V). The N121I mutation causes dominant lethality by itself, but lethality is suppressed by the second mutation, resulting in a recessive loss of function phenotype at the restrictive temperatures. ypt1^ts cells grow normally at temperatures up to 25° C., but are growth arrested at 37° C. (Id.).
Compounds were screened to assess their ability to restore growth of ypt1^ts cells. The effect of the compounds was measured on ypt1^ts cells cultured at room temperature (permissive temperature), 37° C. (non-permissive temperature), and 35° C. (semi-permissive temperature).
To determine if the test compounds could rescue the ypt1^ts mutant phenotype, ypt1^ts cells were grown overnight in synthetic complete (SC) media supplemented with 2% glucose at room temperature. Log phase cells were diluted into SC 2% glucose media to an OD600 of 0.003. 100 μL of this culture was then aliquoted into each well of 96-well flat bottom microtiter plates. 1 μL of the test compounds dissolved in DMSO (at a concentration range from 5 mM-0.005 mM) or of DMSO alone was added to each well (50 μM-0.05 μM final concentration in 1% DMSO). Plates were mixed by vortexing and incubated at 35° C. and 37° C. Compound rescue of the ypt1^ts temperature sensitive defect was assessed by measuring the OD600 (optical density at 600 nm; cell growth) of the cultures. Plates incubated at 35° C. were measured at 24 and 40 hours incubation time while plates grown at 37° C. were measured after 40 hours of incubation.
Assays monitoring the rescue of ypt1^ts mutants were performed using a vehicle, a positive control (calcium), and the compounds identified in Table II. Results in Table II corresponding to an MRC (Minimum Rescue Concentration) for ypt1^ts of greater than or equal to 50 micromolar are labeled +; of an MRC for ypt1^ts of 10-50 micromolar are labeled ++; and of an MRC for ypt1^ts of less than 10 micromolar are labeled +++. Multiple results for a particular compound are separated by a comma.

Row | SMILES | minimal effective concentration [µM]
1 | CC(C)(C)n1nc(Cc2ccc(Cl)cc2)c2c(N)ncnc21 [compound 19] | < 10
2 | Nc1ncnc2c1c(-c1ccc(Cl)cc1)nn2Cc1ccccc1 [compound 28] | 10 to 50
3 | CC(C)(C)n1nc(Cc2ccc(F)cc2)c2c(N)ncnc21 [compound 51] | > 50
4 | Nc1ncnc2c1c(Cc1cccc3ccccc13)nn2CC1CC1 [compound 72] | < 10
5 | CC(C)(C)n1nc(-c2ccc(F)cc2)c2c(N)ncnc21 [compound 9, 1-tert-Butyl-3-(4-fluoro-phenyl)-1H-pyrazolo[3,4-d]pyrimidin-4-ylamine] | > 50
6 | CC(C)(C)n1nc(Cc2ccc3c(c2)OCO3)c2c(N)ncnc21 [compound 23] | 10 to 50
7 | COc1cccc(Cc2nn(C(C)(C)C)c3ncnc(N)c23)c1 [compound 56] | 10 to 50
8 | Cc1cccc(Cc2nn(C(C)(C)C)c3ncnc(N)c23)c1 [compound 52] | 10 to 50
9 | CN(C)c1cccc(C(O)c2nn(C(C)(C)C)c3ncnc(N)c23)c1 (stereo not shown) [compound 87] | > 50
10 | C=CCn1nc(Cc2cccc3ccccc23)c2c(N)ncnc21 [compound 76] | 10 to 50
11 | CCc1nc(N)c2c(-c3ccc(Cl)cc3)nn(C(C)(C)C)c2n1 [compound 61] | > 50
12 | CC(C)(C)n1nc(-c2cc3ccccc3o2)c2c(N)ncnc21 [compound 42] | > 50
13 | Cc1ccc(-c2nn(C(C)(C)C)c3nccc(N)c23)cc1 [compound 69, 1-tert-Butyl-3-p-tolyl-1H-pyrazolo[3,4-b]pyridin-4-ylamine] | > 50
14 | CCn1nc(-c2ccc(Cl)cc2)c2c(N(C(C)=O)C(C)=O)ncnc21 [compound 54] | > 50
15 | Cc1ccc(-c2nn(C(C)(C)C)c3ncc(C(=O)O)c(N)c23)cc1 [compound 45, 4-Amino-1-tert-butyl-3-p-tolyl-1H-pyrazolo[3,4-b]pyridine-5-carboxylic acid] | > 50
16 | CC(C)(C)n1nc(CCc2ccccc2)c2c(N)ncnc21 [compound 48] | > 50
17 | CC(C)(C)n1ncc2c(N)ncnc21 [compound 12, 1-tert-butyl-1H-pyrazolo[3,4-d]pyrimidin-4-ylamine] | > 50
18 | CC(C)(C)n1nc(C(N)=O)c2c(N)ncnc21 [compound 89, 4-Amino-1-tert-butyl-1H-pyrazolo[3,4-d]pyrimidine-3-carboxylic acid amide] | > 50
19 | CC(C)(C)n1nc(-c2ccc(Cl)cc2)c2c(N)nc(CC3CC3)nc21 [compound 63] | > 50
20 | CC(C)(C)n1nc(-c2ccc(C#N)cc2)c2c(N)ncnc21 [compound 35] | > 50
21 | CC(C)(C)n1nc(Cc2ccc(F)c3ccccc23)c2c(N)ncnc21 [compound 91] | < 10
22 | CC(C)(C)n1nc(-c2ccc(-c3ccccc3)cc2)c2c(N)ncnc21 [compound 14] | > 50
23 | CC(C)(C)n1nc(-c2ccccc2Cl)c2c(N)ncnc21 [compound 7] | > 50

Row | SMILES | minimal effective concentration [µM]
24 | CC(C)n1nc(Cc2cccc3ccccc23)c2c(N)ncnc21 [compound 78] | < 10
25 | CC(C)(C)c1ccc(-c2nn(C(C)(C)C)c3ncnc(N)c23)cc1 [compound 18] | > 50
26 | CC(C)Cn1nc(Cc2cccc3ccccc23)c2c(N)ncnc21 [compound 75] | < 10
27 | CC(C)(C)n1nc(Cc2cccc(Br)c2)c2c(N)ncnc21 [compound 58] | < 10
28 | Nc1ncnc2[nH]nc(Cc3cccc4ccccc34)c12 [compound 70] | > 50
29 | CC(C)(C)n1nc(C(=O)c2ccccc2)c2c(N)ncnc21 [compound 83, (4-Amino-1-tert-butyl-1H-pyrazolo[3,4-d]pyrimidin-3-yl)-phenyl-methanone] | > 50
30 | CCn1nc(Cc2cccc3ccccc23)c2c(N)ncnc21 [compound 71] | < 10
31 | CC(C)c1ccc(-c2nn(C(C)(C)C)c3ncnc(N)c23)cc1 [compound 17] | > 50
32 | CC(C)(C)n1nc(C(=O)O)c2c(N)ncnc21 [compound 85, 4-Amino-1-tert-butyl-1H-pyrazolo[3,4-d]pyrimidine-3-carboxylic acid] | > 50
33 | CC(C)(C)n1nc(Cc2cccc3ccccc23)c2c(N)nc(C3CC3)nc21 [compound 92] | > 50
34 | CC(c1ccccc1)c1nn(C(C)(C)C)c2ncnc(N)c12 (stereo not shown) [compound 49] | 10 to 50
35 | CC(C)(C)n1nc(-c2ccc(Cl)cc2)c2c(N)nc(C3CC3)nc21 [compound 62] | > 50
36 | CC(C)(C)n1nc(Cc2cccc3ccoc23)c2c(N)ncnc21 [compound 68] | 10 to 50
37 | CC(C)(C)n1nc(C(O)c2ccccc2)c2c(N)ncnc21 (stereo not shown) [compound 82, (4-amino-1-tert-butyl-1H-pyrazolo[3,4-d]pyrimidin-3-yl)-phenyl-methanol] | > 50
38 | CC(C)(C)n1nc(Cc2cccc3c2OCC3)c2c(N)ncnc21 [compound 66] | 10 to 50
39 | CC(C)(C)n1nc(-c2ccsc2)c2c(N)ncnc21 [compound 37] | > 50
40 | CC(C)(C)n1nc(Cc2cccc(-c3ccccc3)c2)c2c(N)ncnc21 [compound 60] | > 50
41 | COc1ccc(-c2nn(C(C)(C)C)c3ncnc(N)c23)cc1 [compound 13] | > 50
42 | CC(C)(C)n1nc(-c2cccs2)c2c(N)ncnc21 [compound 15] | > 50
43 | C#Cc1cccc(Cc2nn(C(C)(C)C)c3ncnc(N)c23)c1 [compound 64] | 10 to 50
44 | CC(C)(C)n1nc(COCc2ccccc2)c2c(N)ncnc21 [compound 81, 3-benzyloxymethyl-1-tert-butyl-1H-pyrazolo[3,4-d]pyrimidin-4-ylamine] | > 50
45 | CC(C)(C)n1nc(Cc2ccc(Cl)c(Cl)c2)c2c(N)ncnc21 [compound 21] | > 50
46 | Cc1nc(N)c2c(-c3ccc(Cl)cc3)nn(C(C)(C)C)c2n1 [compound 57] | 10 to 50

molecular target: T1, ΔF508 CFTR (Homo sapiens, UniProt P13569, DEL508-508); experiment: Corrector activity, YFP halide (iodide) quenching assay in FRT cells expressing ΔF508 CFTR; format: cell-based; parameters: expressed in transfected cells; host or cells: Fischer rat thyroid (FRT) cells; conditions: FRT cells ΔF508 CFTR/YFP, 24 hours with compound at 37° C., forskolin and genistein; read-out: Corrector EC50
T1 sequence (P13569 with tags, fused parts or gaps DEL508-508): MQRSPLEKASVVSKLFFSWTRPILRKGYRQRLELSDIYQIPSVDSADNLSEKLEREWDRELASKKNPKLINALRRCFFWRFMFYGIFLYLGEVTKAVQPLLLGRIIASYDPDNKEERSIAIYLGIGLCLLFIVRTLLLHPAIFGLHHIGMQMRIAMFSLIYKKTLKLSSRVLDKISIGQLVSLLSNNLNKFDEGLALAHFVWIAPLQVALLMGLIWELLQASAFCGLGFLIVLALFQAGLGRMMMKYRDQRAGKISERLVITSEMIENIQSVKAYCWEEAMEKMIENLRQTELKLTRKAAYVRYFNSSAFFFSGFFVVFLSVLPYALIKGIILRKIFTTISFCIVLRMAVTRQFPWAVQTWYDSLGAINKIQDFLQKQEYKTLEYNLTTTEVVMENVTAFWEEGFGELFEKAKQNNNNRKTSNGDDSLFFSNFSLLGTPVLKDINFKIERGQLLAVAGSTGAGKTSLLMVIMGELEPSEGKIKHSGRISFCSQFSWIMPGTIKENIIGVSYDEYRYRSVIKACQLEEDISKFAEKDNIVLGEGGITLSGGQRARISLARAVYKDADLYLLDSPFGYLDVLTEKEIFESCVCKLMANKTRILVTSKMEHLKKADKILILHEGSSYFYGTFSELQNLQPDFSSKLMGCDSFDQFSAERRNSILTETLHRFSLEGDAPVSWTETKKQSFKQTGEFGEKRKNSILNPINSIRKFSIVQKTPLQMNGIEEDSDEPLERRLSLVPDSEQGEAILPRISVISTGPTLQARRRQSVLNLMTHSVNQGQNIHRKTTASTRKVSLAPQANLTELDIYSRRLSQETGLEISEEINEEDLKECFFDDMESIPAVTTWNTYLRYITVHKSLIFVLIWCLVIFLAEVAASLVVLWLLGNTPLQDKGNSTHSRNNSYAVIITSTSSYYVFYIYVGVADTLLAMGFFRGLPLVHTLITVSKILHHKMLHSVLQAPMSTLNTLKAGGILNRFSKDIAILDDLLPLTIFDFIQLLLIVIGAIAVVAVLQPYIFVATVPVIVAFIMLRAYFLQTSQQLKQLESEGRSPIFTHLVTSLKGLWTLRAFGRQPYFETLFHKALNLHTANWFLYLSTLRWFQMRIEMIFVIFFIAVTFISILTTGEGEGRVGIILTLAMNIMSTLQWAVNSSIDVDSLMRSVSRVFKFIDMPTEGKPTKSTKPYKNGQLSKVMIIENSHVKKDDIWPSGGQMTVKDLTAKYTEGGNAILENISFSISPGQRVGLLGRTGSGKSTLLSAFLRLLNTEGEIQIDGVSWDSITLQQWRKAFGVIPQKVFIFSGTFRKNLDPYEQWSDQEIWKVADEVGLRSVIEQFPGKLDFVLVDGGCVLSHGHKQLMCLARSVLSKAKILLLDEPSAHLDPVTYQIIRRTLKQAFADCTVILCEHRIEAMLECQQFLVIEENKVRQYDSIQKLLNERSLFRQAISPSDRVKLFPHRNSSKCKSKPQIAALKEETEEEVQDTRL
Summary of the method: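 FRT cells co-expressing ΔF508 CFTR and halide-sensitive YFP were incubated 24 h at 37° C with compounds, then stimulated 30 min at 37° C in PBS with forskolin and genistein. Endpoint fluorescence after iodide injection was normalized to initial reading; EC50 from 4-parameter fit with bottom constrained to DMSO control.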

Row | SMILES | EC50 [µM]
47 | CCOC(=O)N1CCC(n2nc(-c3ccc(Cl)cc3)c3c(N)ncnc32)CC1 [compound 303] | > 15
48 | CC(C)(C)n1nc(-c2ccc(Cl)cc2)c2c(NC(=O)N3CCOCC3)ncnc21 [compound 268] | > 15
49 | CCn1nc([S+]([O-])c2cccc(C)c2)c2c(N)ncnc21 (stereo not shown) [compound 224] | > 15
50 | Nc1ncnc2c1c(-c1ccc(Cl)cc1)nn2C1CCCC1 [compound 247] | 2 to 5
51 | CC(C)(C)n1nc(Oc2ccccc2[N+](=O)[O-])c2c(N)ncnc21 [compound 331] | > 15
52 | Cc1ccc(C(=O)Nc2ncnc3c2c(-c2ccc(C)cc2)nn3C(C)(C)C)cc1 [compound 95] | > 15

molecular target: T1, ΔF508 CFTR; experiment: Potentiator activity, YFP halide (iodide) quenching assay in FRT cells expressing ΔF508 CFTR, 27° C. pre-incubation; format: cell-based; parameters: expressed in transfected cells; host or cells: Fischer rat thyroid (FRT) cells; conditions: FRT cells ΔF508 CFTR/YFP, 24 hours at 27° C., compound with forskolin 30 min
Summary of the method: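 FRT cells stably co-expressing ΔF508 CFTR and halide-sensitive YFP, grown 24 h at 37° C. then 24 h at 27° C. to raise surface CFTR. Compounds in PBS with forskolin, 30 min at 37° C.; iodide injected and YFP quenching (ex 485/em 530 nm) followed. EC50 from normalized endpoint fluorescence.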

Row | SMILES | EC50 [µM]
53 | CCOC(=O)N1CCC(n2nc(-c3ccc(Cl)cc3)c3c(N)ncnc32)CC1 [compound 303] | > 15
54 | CC(C)(C)n1nc(-c2ccc(Cl)cc2)c2c(NC(=O)N3CCOCC3)ncnc21 [compound 268] | > 15
55 | CCn1nc([S+]([O-])c2cccc(C)c2)c2c(N)ncnc21 (stereo not shown) [compound 224] | > 15
56 | Nc1ncnc2c1c(-c1ccc(Cl)cc1)nn2C1CCCC1 [compound 247] | 2 to 5
57 | CC(C)(C)n1nc(Oc2ccccc2[N+](=O)[O-])c2c(N)ncnc21 [compound 331] | 2 to 5
58 | Cc1ccc(C(=O)Nc2ncnc3c2c(-c2ccc(C)cc2)nn3C(C)(C)C)cc1 [compound 95] | 2 to 5
